Data on two compounds can be found in US20240423999A1 (priority 2021, published 2024).

One data set deals with mice. Particulars: mouse, in vivo, po.
The conditions of data set [1]: in vivo; cited from earlier work.

Consider `[C-]#[O+]` [CO, carbon monoxide], for which, in the data set with mice, the behavioral recovery result is listed as “behavior recovered from being incapable of action” and the survival rate entry is recorded as “high”.
`O=S([O-])S(=O)[O-].[Na+].[Na+]` [sodium dithionite]: the “value indicated for oral toxicity” value in data set [1] is recorded as 2500 mg/kg body weight.
